Columns and labels:
[1] = molecular target: T1, CCR1 (125I-MIP-1α binding to THP-1 cell membranes) (Homo sapiens, UniProt P32246); test: THP-1 cell membrane 125I-MIP-1α binding assay; conditions: 0.1 to 0.2 nM 125I-MIP-1α, 60 min at room temperature, read-out: Inhibition of 125I-MIP-1α Binding to THP-1 Cell Membranes (Ki (nM))
T1 construct: Membranes were prepared from THP-1 cells (ATCC. #TIB202); host or cells: THP-1 cells (membrane preparation)
T1 sequence (P32246 1-355): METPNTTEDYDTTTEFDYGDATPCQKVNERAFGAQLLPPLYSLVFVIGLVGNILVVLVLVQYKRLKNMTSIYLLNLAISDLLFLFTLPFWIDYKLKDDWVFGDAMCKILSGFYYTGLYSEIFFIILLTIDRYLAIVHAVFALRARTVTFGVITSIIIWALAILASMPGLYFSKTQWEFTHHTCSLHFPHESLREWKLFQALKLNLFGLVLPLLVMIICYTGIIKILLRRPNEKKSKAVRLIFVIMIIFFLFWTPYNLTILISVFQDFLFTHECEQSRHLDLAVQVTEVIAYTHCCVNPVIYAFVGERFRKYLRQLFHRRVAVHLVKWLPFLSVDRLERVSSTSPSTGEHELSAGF
Source text: The activity of compounds of the present invention can be assessed using suitable assays, such as receptor binding assays or chemotaxis assays. For example, as described in the Examples, small molecule antagonists of […] binding have been identified utilizing THP-1 cells membranes. Specifically, a high through-put receptor binding assay, which monitors ^125I-MIP-1α binding to THP-1 cell membranes, was used to identify small molecule antagonists which block binding of MIP-1α. Compounds of the present invention can also be identified by virtue of their ability to inhibit the activation steps triggered by binding of a chemokine (e.g., CCL2 (MCP-1) CCL3 (MIP-1α), CCL4 (MIP-1β), CCL5 (RANTES), CCL7 (MCP-3), CCL8 (MCP-2), CCL13 (MCP-4), CCL14 (HCC-1), CCL15 (Lkn-1), CCL23 (MPIF-1)) to its receptor (CCR-1), such as chemotaxis, integrin activation and granule mediator release. They can also be identified by virtue of their ability to block chemokine (e.g., CCL2 (MCP-1) CCL3 (MIP-1α), CCL4 (MIP-1β), CCL5 (RANTES), CCL7 (MCP-3), CCL8 (MCP-2), CCL13 (MCP-4), CCL14 (HCC-1), CCL15 (Lkn-1), CCL23 (MPIF-1)) induced chemotaxis of, for example, HL-60 cells, T-cells, peripheral blood mononuclear cells or eosinophils.
Membranes were prepared from THP-1 cells (ATCC. #TIB202). Cells were harvested by centrifugation, washed twice with PBS (phosphate-buffered saline), and the cell pellets were frozen at −70 to −85° C. The frozen pellet was thawed in ice-cold lysis buffer consisting of 5 mM HEPES (N-2-hydroxyethylpiperazine-N′-2-ethane-sulfonic acid) pH 7.5, 2 mM EDTA (ethylenediaminetetraacetic acid), 5 μg/ml each aprotinin, leupeptin, and chymostatin (protease inhibitors), and 100 μg/ml PMSF (phenyl methane sulfonyl fluoride—also a protease inhibitor), at a concentration of 1 to 5×10^7 cells/ml. This procedure results in cell lysis. The suspension was mixed well to resuspend all of the frozen cell pellet. Nuclei and cell debris were removed by centrifugation of 400×g for 10 minutes at 4° C. The supernatant was transferred to a fresh tube and the membrane fragments were collected by centrifugation at 25,000×g for 30 minutes at 4° C. The supernatant was aspirated and the pellet was resuspended in freezing buffer consisting of 10 mM HEPES pH 7.5, 300 mM sucrose, 1 μg/ml each aprotinin, leupeptin, and chymostatin, and 10 μg/ml PMSF (approximately 0.1 ml per each 10^8 cells). All clumps were resolved using a minihomogenizer, and the total protein concentration was determined using a protein assay kit (Bio-Rad, Hercules, Calif., cat #500-0002). […]
Binding Assays utilized the membranes described above. […] The filters were rinsed with approximately 600 μl of binding buffer containing 0.5 M NaCl, dried, and the amount of bound radioactivity was determined by scintillation counting.

[2] = tested on: neutrophil recruitment in response to murine MIP-1α; test: In vivo efficacy model: neutrophil recruitment in response to MIP-1α (MPO activity in skin biopsies); design: species or system guinea pig; conditions: for ED50 / oral bioavailability and efficacy in comparison to the Reference Example: oral; for ED50: 30 minutes prior to intradermal murine MIP-1α (100 pmol/site), read-out: Efficacy: Guinea Pig Neutrophil Recruitment (ED50 (mg/kg)); for oral bioavailability and efficacy in comparison to the Reference Example: guinea pig, comparison in words
Method: An animal model of neutrophil recruitment in response to MIP-1α was used to evaluate the biological/pharmacodynamic activity of the compounds. Compounds were administered to female Hartley guinea pigs orally (doses ranged from about 0.5 mg/kg to about 5.0 mg/kg) 30 minutes prior to intradermal injections of murine MIP-1α (100 pmol/site) or phosphate buffered saline (PBS). Skin punch biopsies were taken 5 hours later and processed for myeloperoxidase (MPO) measurements. MPO activity was used as an indicator for neutrophil recruitment to the injection site.

[3] = tested on: other G protein-coupled receptors and ion channels; test: Selectivity on other G protein-coupled receptors and ion channels; conditions: assayed on other G protein-coupled receptors and ion channels; comparison in words
[4] = Cavia porcellus, Neutrophil, female Hartley guinea pigs, MPO at 5 hours

Structure (SMILES)	Ki [1] [nM]	ED50 [2, 4] [mg/kg]	oral bioavailability and efficacy in comparison to the Reference Example [2]	selectivity compared to structurally related compounds [3]	inhibition at 2.5 mg/kg ([2]; Cavia porcellus, Neutrophil, at 2.5 mg/kg oral, female Hartley guinea pigs, intradermal murine MIP-1α, MPO at 5 hours, read-out: Efficacy: Guinea Pig Neutrophil Recruitment, % inhibition) [%]
CC1(C)CN(CCC=C2c3cc(C(=O)O)ccc3OCc3ncccc32)CC[C@]1(O)c1ccc(Cl)cc1 [Example 1, (S)-5-{3-[4-(4-Chloro-phenyl)-4-hydroxy-3,3-dimethyl-piperidin-1-yl]-propylidene}-5,11-dihydro-10-oxa-1-aza-dibenzo[a,d]cycloheptene-7-carboxylic acid]	2.3	0.12	greater oral bioavailability and efficacy	greater selectivity	–
CC1(C)CN(CCC=C2c3cc(C(=O)O)ccc3OCc3ncccc32)CC[C@@]1(O)c1ccc(Cl)cc1 [Example 2, (R)-5-{3-[4-(4-Chloro-phenyl)-4-hydroxy-3,3-dimethyl-piperidin-1-yl]-propylidene}-5,11-dihydro-10-oxa-1-aza-dibenzo[a,d]cycloheptene-7-carboxylic acid]	> 1000	–	–	–	–
O=C(O)c1ccc2c(c1)/C(=C/CCN1CCC(O)(c3ccc(Cl)cc3)CC1)c1cccnc1CO2 [Reference Example, reference compound]	7.8	3.6	–	–	–
CC1(C)CN(CC/C=C2/c3cc(C(=O)O)ccc3OCc3ncccc32)CCC1(O)c1ccc(Cl)cc1 (racemic) [Example 3, racemic-5-{3-[4-(4-Chloro-phenyl)-4-hydroxy-3,3-dimethyl-piperidin-1-yl]-propylidene}-5,11-dihydro-10-oxa-1-aza-dibenzo[a,d]cycloheptene-7-carboxylic acid]	3	–	greater oral bioavailability and efficacy	greater selectivity	99

From patent US9334283B2, “CCR1 antagonists and methods of use thereof” (Millennium Pharmaceuticals, Inc., priority 2002, dated 2016)
